In ChEMBL document CHEMBL1201862, “PubChem BioAssay data set” (2004):
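Step 1: Grow cells in 96-well plates. Step 2: Expose to compound for 48 hours at 5 concentrations. Step 3: Interpolate endpoints linearly; if unreached, use highest concentration. Here, GI50 denotes the concentration required for 50% inhibition of growth.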 Active and inactive are the calls of the source. No stated cut-off is given here; in the data, active = GI50 up to about 1.1 µM and inactive = higher.

What was measured:
Test in all cases: NCI-60 cell line screen, 48 h
OVCAR-3 = system: OVCAR-3
MCF7 = system: MCF7
U-251 = system: U-251
NCI-H522 = system: NCI-H522
HT-29 = system: HT-29
M14 = system: M14
MDA-MB-231 = system: MDA-MB-231
SK-OV-3 = system: SK-OV-3
A498 = system: A498
IGROV-1 = system: IGROV-1
SF-295 = system: SF-295
RPMI-8226 = system: RPMI-8226
MOLT-4 = system: MOLT-4
UACC-257 = system: UACC-257
HCT-116 = system: HCT-116
HOP-92 = system: HOP-92
RXF 393 = system: RXF 393
MDA-MB-435 = system: MDA-MB-435
SF-268 = system: SF-268

Measured: GI50

CC(=O)OC(OC(C)=O)n1cc(C=O)c2ccccc21
inactive: OVCAR-3 > 100 µM | MCF7 25.9 µM | U-251 > 100 µM | NCI-H522 > 100 µM | HT-29 > 100 µM | M14 > 100 µM | MDA-MB-231 > 100 µM | SK-OV-3 > 100 µM | A498 36.7 µM | IGROV-1 > 10 µM | SF-295 > 100 µM | RPMI-8226 > 100 µM | MOLT-4 > 100 µM | UACC-257 > 100 µM | HCT-116 > 100 µM

c1ccc(NN/N=N/c2ccc(-c3nc4ccccc4[nH]3)cc2)cc1
inactive: OVCAR-3 15.6 µM | MCF7 15.3 µM | U-251 40.4 µM | NCI-H522 24.7 µM | HT-29 25 µM | M14 10.6 µM | MDA-MB-231 72.8 µM | SK-OV-3 > 100 µM | A498 43.7 µM | IGROV-1 27.8 µM | HOP-92 60.7 µM | SF-295 25.6 µM | RXF 393 21.3 µM | RPMI-8226 14.2 µM | MOLT-4 14.5 µM | MDA-MB-435 19.4 µM | UACC-257 28.6 µM | HCT-116 28 µM

C[C@]12CC[C@H]3[C@@H](CCC4=CC(=O)CC[C@@]43C)[C@@H]1CC[C@@H]2C(=O)COS(=O)(=O)c1ccc(Br)cc1
inactive: OVCAR-3 6.43 µM | MCF7 8.15 µM | SF-268 8.93 µM | U-251 8.93 µM | NCI-H522 1.59 µM | HT-29 11.8 µM | M14 6.55 µM | MDA-MB-231 6.49 µM | SK-OV-3 15.1 µM | A498 20.2 µM | IGROV-1 1.6 µM | HOP-92 5.94 µM | SF-295 19.3 µM | RXF 393 14.5 µM | RPMI-8226 2.35 µM | MOLT-4 1.41 µM | MDA-MB-435 9.55 µM | UACC-257 13.7 µM

CN(/N=C1\C(=O)Nc2ccccc21)c1ccccc1
inactive: OVCAR-3 33.7 µM | MCF7 15.3 µM | SF-268 43.2 µM | U-251 74.8 µM | NCI-H522 87.3 µM | HT-29 54.3 µM | M14 74.6 µM | MDA-MB-231 9.4 µM | SK-OV-3 > 100 µM | A498 > 100 µM | IGROV-1 36.6 µM | HOP-92 22.5 µM | SF-295 40.7 µM | RPMI-8226 74.3 µM | MOLT-4 45.2 µM | MDA-MB-435 > 100 µM | UACC-257 > 100 µM | HCT-116 57.8 µM

Cc1cc(C)n(C(=C(C(Cl)=C(Cl)Cl)[N+](=O)[O-])n2nc(C)cc2C)n1
inactive: OVCAR-3 3.08 µM | MCF7 2.55 µM | SF-268 4.23 µM | U-251 3.44 µM | NCI-H522 2.73 µM | HT-29 3.5 µM | M14 3.8 µM | MDA-MB-231 7.41 µM | SK-OV-3 3.29 µM | A498 2.86 µM | IGROV-1 4.03 µM | HOP-92 2.72 µM | SF-295 3.85 µM | RXF 393 3.79 µM | MOLT-4 2.37 µM | MDA-MB-435 2.19 µM | UACC-257 3.24 µM | HCT-116 3.65 µM

Cc1ccc(Nc2nc3ccccc3nc2NS(=O)(=O)c2ccc(N)cc2)cc1
inactive: OVCAR-3 65 µM | MCF7 45.2 µM | SF-268 89.7 µM | U-251 30.2 µM | NCI-H522 25.2 µM | HT-29 68.4 µM | M14 57.7 µM | MDA-MB-231 > 100 µM | SK-OV-3 > 100 µM | IGROV-1 56.8 µM | HOP-92 95.9 µM | SF-295 46.7 µM | RXF 393 30.8 µM | RPMI-8226 23.6 µM | MOLT-4 15.6 µM | MDA-MB-435 30.7 µM | UACC-257 > 100 µM | HCT-116 37.3 µM

CC1(C)CC(=O)C2=C(C1)OC1=C(CC(C)(C)CC1=O)C2c1ccccc1[N+](=O)[O-] (configuration not stated)
inactive: OVCAR-3 > 100 µM | SF-268 > 100 µM | U-251 > 100 µM | NCI-H522 > 100 µM | HT-29 > 100 µM | M14 > 100 µM | MDA-MB-231 > 100 µM | SK-OV-3 > 100 µM | A498 > 100 µM | IGROV-1 > 100 µM | HOP-92 > 100 µM | SF-295 > 100 µM | RXF 393 > 100 µM | RPMI-8226 > 100 µM | MOLT-4 > 100 µM | MDA-MB-435 > 100 µM | HCT-116 > 100 µM

c1ccc(C(NC2=NCCO2)c2ccccc2)cc1
inactive: OVCAR-3 > 10 µM | MCF7 6 µM | SF-268 > 10 µM | U-251 > 10 µM | NCI-H522 > 10 µM | HT-29 > 10 µM | M14 > 10 µM | MDA-MB-231 > 10 µM | SK-OV-3 > 10 µM | A498 5.75 µM | IGROV-1 > 10 µM | SF-295 9.33 µM | RXF 393 > 10 µM | RPMI-8226 > 10 µM | MOLT-4 > 10 µM | MDA-MB-435 > 10 µM | HCT-116 > 10 µM

ClCC1(CCl)COC1
inactive: OVCAR-3 > 100 µM | MCF7 > 100 µM | SF-268 > 100 µM | U-251 > 100 µM | NCI-H522 > 100 µM | HT-29 > 100 µM | M14 > 100 µM | MDA-MB-231 > 100 µM | SK-OV-3 > 100 µM | A498 > 100 µM | HOP-92 > 100 µM | SF-295 > 100 µM | RXF 393 > 100 µM | MOLT-4 > 100 µM | MDA-MB-435 > 100 µM | UACC-257 > 100 µM | HCT-116 > 100 µM

Cc1cnc(/N=c2\sc(C)cn2-c2ncc(C)s2)s1
inactive: OVCAR-3 > 100 µM | MCF7 > 100 µM | SF-268 > 100 µM | U-251 > 100 µM | NCI-H522 > 100 µM | HT-29 > 100 µM | M14 > 100 µM | MDA-MB-231 > 100 µM | SK-OV-3 > 100 µM | IGROV-1 > 100 µM | HOP-92 > 100 µM | SF-295 > 100 µM | RXF 393 > 100 µM | RPMI-8226 > 100 µM | MOLT-4 > 100 µM | MDA-MB-435 > 100 µM | UACC-257 > 100 µM | HCT-116 > 100 µM

CC(=O)C1CC[C@@H]2[C@H](CC[C@]3(C)[C@@H](O)CC[C@@H]23)[C@H]1C(=O)O (some centres not stated)
inactive: OVCAR-3 > 100 µM | MCF7 > 100 µM | SF-268 > 100 µM | U-251 > 100 µM | NCI-H522 > 100 µM | HT-29 > 100 µM | M14 > 100 µM | MDA-MB-231 > 100 µM | SK-OV-3 > 100 µM | A498 > 100 µM | IGROV-1 > 100 µM | HOP-92 > 100 µM | SF-295 > 100 µM | RXF 393 > 100 µM | RPMI-8226 > 100 µM | MOLT-4 > 100 µM | MDA-MB-435 > 100 µM | UACC-257 > 100 µM
